Data reported in article PMC5118709, “Identification of Polo-like kinase 1 interaction inhibitors using a novel cell-based assay” (Scientific Reports, 2016).
Several values for one entry are separate records, joined by “and”; a condition that tells them apart may be missing. Identical values can stand only once.

How the values were obtained:
[1] = molecular target: T1, Plk1-Map interaction (Homo sapiens, UniProt P53350); experiment: LUMIER co-immunoprecipitation assay Plk1-Map
Experimental: After cell lysis, GFP-Plk1 was immunoprecipitated and co-purified Map-Luc was measured by luminescence following addition of the luciferase substrate, coelenterazine.
Half a million stably transfected Map205-RLucII/GFP10-Plk1 cells in Tyrode solution were seeded per well in a 96-well plate and allowed to settle for 30 min at 37 °C. […] Plates were then centrifuged at 4 °C at 3000 rpm for 5 minutes to pellet cells. Cells were then lysed with the IP buffer (20 mM Tris pH 7.5, 150 mM NaCl, 2 mM EGTA, 0.5% NP-40, 1 mM DTT, PMSF, aprotinin and leupeptin) and incubated on ice for 20 minutes. Plates were centrifuged again at 4 °C at 3400 rpm for 10 minutes, and the soluble fraction was transferred into a new 96-well plate. Note that 10 μl of this fraction was transferred in white 96-well plates from which the luminescence was read as a measure of the input amount of cell lysate for the co-IP. GFP-Plk1 was immunoprecipitated by adding 0.35 μl of anti-GFP antibody (Invitrogen). Plates were sealed and incubated on a rotator at 4 °C for 30 minutes. Then, 4 μl of pre-washed protein A magnetic beads (Invitrogen) were added to each well. Plates were sealed and incubated at 4 °C for 1h30. The extracts + beads were then transferred in a 96-well PCR plates and beads were washed 3 times with the IP buffer using a magnetic 96-well rack. The fourth wash was done in Tyrode solution, then beads were re-suspended with it and transferred in a white 96-well plate. […] Tyrode was also added to the plates containing the input fraction, then Coelenterazine h was added to the wells, and enhanced luminescence was read as described above.

[2] = molecular target: T1, Plk1-Map interaction; experiment: BRET Plk1-Map, transient Luc-Map/Plk1-GFP in HEK293T; assay type: cell-based; design: cDNAs for the human full length Plk1; expressed in transfected cells; conditions: confirmation screen
Experimental: (§1) For the confirmation screen, the same procedure as for the primary screen was followed, except that HEK293T cells were also seeded at 6.25 millions of cells per simple CellStack on day 1 for transient transfections. These cells were transfected on day 3 with Luc-Map (5 μg) and Plk1-GFP (25 μg) pIRESHyg3 plasmids using polyethylenimine (PEI). To identify false-positives compounds, Luc-CRAF (4 μg) and GFP-BRAF (20 μg) plasmids were also transfected with PEI following the published procedure.

[3] = molecular target: T2, Plk1 (Homo sapiens, UniProt P53350); experiment: localization of Plk1 in mitotic cells; assay type: cell-based; conditions: up to 100 μM, data not shown
T2 construct: localization of Plk1-GFP or endogenous Plk1 from mitotic centrosomes, kinetochores or the cytokinetic midbody; endogenous in cells
T2 sequence (P53350 whole entry): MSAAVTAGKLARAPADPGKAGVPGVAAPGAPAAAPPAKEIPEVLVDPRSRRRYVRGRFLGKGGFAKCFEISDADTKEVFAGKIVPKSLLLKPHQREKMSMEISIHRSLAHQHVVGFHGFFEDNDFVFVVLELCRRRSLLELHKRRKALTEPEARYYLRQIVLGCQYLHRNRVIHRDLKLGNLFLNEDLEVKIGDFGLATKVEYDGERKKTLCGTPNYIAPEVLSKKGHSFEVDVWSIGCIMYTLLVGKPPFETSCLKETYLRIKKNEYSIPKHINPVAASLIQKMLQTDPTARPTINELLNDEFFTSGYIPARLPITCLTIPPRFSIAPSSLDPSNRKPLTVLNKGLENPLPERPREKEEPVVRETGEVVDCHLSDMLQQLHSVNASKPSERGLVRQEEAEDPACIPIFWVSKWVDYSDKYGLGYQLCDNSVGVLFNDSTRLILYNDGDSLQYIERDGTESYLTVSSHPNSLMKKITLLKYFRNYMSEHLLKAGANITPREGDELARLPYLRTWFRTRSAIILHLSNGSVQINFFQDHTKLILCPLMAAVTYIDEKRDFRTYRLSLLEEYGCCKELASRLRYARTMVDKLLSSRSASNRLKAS

[4] = stability by LC-MS; assay type: physicochemical
Text: Based on these observations, we speculated that the sulfone undergoes a β-elimination of the benzoate subunit to generate a vinyl sulfone which is responsible for the biological activity of this class of compounds. Using LCMS, we evaluated the stability of Cpd 16 in the buffer used in the FP assay. […] The sulfone β-elimination is a base-catalysed process and the buffer used in the assay is basic enough to allow the reaction to occur. Under neutral or acidic conditions, the compound was very stable and no fragmentation was observed.
Cpd 161, which is 2-((6-methyl-4-(trifluoromethyl)pyridin-2-yl)sulfonyl)ethyl 3-chlorobenzoate (400 μM final concentration), was added to 500 μl of FP buffer (previously described).

[5] = molecular target: GST-PBD367-603 of Plk1 (Homo sapiens, UniProt P53350); experiment: fluorescence polarization assay PBD-phosphopeptide
Sequence of GST-PBD367-603 of Plk1 (P53350 367-603): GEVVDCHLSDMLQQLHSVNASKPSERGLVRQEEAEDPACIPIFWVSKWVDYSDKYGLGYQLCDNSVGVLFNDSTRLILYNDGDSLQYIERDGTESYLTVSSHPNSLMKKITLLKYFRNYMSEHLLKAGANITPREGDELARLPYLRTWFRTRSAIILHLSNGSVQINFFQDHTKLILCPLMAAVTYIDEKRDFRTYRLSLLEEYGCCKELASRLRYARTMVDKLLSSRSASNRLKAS

[6] = molecular target: T3, CRAF-BRAF (Homo sapiens, UniProt P04049+P15056); experiment: control BRET CRAF-BRAF (transient); assay type: cell-based
T3 construct: expressed in transfected cells; host or cells: HEK293T, transient transfection with PEI
T3 sequence (P04049 whole entry): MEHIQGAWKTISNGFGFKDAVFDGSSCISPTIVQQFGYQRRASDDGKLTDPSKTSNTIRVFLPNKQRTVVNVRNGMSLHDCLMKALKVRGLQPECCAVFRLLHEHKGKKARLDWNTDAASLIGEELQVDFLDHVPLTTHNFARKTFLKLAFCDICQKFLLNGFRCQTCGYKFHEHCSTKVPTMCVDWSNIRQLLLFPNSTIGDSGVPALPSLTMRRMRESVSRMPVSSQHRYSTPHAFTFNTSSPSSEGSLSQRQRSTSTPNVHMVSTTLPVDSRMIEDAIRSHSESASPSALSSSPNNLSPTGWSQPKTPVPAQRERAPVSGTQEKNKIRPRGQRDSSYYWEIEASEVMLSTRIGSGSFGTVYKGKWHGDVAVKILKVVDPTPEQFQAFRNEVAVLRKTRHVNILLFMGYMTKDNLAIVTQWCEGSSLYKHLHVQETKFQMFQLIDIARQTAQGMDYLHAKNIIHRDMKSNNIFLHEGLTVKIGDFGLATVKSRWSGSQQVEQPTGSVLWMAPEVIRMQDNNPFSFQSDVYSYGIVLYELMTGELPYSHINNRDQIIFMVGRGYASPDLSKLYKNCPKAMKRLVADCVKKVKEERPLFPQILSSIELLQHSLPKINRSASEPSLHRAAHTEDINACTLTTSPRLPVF
T3 sequence (P15056 whole entry): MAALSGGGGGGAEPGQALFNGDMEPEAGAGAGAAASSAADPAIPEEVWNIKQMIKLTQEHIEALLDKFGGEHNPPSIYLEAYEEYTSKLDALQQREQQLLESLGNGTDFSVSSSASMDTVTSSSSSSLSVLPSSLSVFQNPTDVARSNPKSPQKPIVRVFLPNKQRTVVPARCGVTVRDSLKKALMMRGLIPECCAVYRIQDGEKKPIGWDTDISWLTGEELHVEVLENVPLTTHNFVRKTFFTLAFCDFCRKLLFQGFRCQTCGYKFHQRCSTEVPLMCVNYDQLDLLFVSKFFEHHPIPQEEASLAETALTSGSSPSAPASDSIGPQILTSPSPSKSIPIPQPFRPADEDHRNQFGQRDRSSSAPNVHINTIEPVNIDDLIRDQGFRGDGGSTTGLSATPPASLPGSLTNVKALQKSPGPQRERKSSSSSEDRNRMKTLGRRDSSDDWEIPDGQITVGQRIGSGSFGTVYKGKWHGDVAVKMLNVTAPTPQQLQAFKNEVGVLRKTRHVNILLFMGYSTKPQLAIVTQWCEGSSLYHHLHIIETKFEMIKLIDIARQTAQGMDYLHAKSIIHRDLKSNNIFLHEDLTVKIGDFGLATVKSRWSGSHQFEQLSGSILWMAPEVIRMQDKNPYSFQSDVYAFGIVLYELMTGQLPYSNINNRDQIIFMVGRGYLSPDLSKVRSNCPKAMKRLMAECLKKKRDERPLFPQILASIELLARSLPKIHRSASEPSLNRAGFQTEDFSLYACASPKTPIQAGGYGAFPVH
Experimental: We used our cell-based assay to screen a library of 112 983 compounds available in-house at IRIC’s High-Throughput Screening (HTS) platform (see Materials & Methods). Compounds were tested on cells in 384-well plates at concentrations between 10 μM and 25 μM, depending on their concentration in the original stocks solutions. BRET readings were taken 2 hours after treatment. Results obtained show a tight, close to normal distribution centered around zero inhibition relative to DMSO-treated controls (Fig. 1D). Compounds inducing at least 30% BRET inhibition were selected. From these, auto-fluorescent compounds and those that induced more than 90% reduction in RLucII luminescence were removed, leaving 800 primary hits, that we then re-tested using the same assay. In parallel, we tested these compounds in a control BRET assay for an unrelated pair of interacting proteins (BRAF-CRAF[46]) to exclude false-positive compounds that could reduce the BRET signal by interfering with light or by modifying the activity of GFP or Luc.
as §1

T1 sequence (P53350 whole entry): as the sequence (P53350 whole entry) above

Cc1cc(C(F)(F)F)cc(S(=O)(=O)CCOC(=O)c2cccc(Cl)c2)n1 [Cpd 16, 2-((6-methyl-4-(trifluoromethyl)pyridin-2-yl)sulfonyl)ethyl 3-chlorobenzoate]
Average-Beads (mean luminescence) ([1]; 10-25 μM, 2 h): 25,276
Co-IP Values relative to top in plate column = 1 ([1]; 10-25 μM, 2 h): 0.022
effect on the Plk1-Map interaction in co-IP ([1]; 10-25 μM, 2 h): disrupts the interaction with similar or better efficiency than TQ or PPG
Relative Luminescence Unit ([1]; mean divided by maximum mean of the compounds): 0.022
Luminescence on beads, duplicate wells ([1]; raw data, 10-25 μM, 2 h): 21,904 and 28,648
Confirmation Plk1-Map (transient) % Inihibition [2]: 30.06%
Confirmation Plk1-Map (transient) % Quench RLuc [2]: 74.57%
effect on localization of Plk1 in mitotic cells [3]: did not result in a significant decrease
stability in the FP buffer ([4]; approximate pH 8.0, a few minutes (approximately 10 minutes)): fragmentation occurred
stability ([4]; neutral or acidic conditions): very stable
IC50 ([5]; FP - IC50 (μM), Table S3): 18.4 ± 10.2 µM
IC50 ([5]; IC50 in FP, GST-PBD367-603 38 nM, 1 h pre-incubation, FITC-phosphopeptide 10 nM, Fig. 4C): ~16 µM and 16 µM
Primary screen CRAF-BRAF (transient) % Inihibition ([6]; 10-25 μM): 52.83%
Primary screen CRAF-BRAF (transient) % Quench RLuc ([6]; 10-25 μM): 88.39%
Confirmation CRAF-BRAF (transient) % Inihibition ([6]; confirmation screen): 0.37%
Confirmation CRAF-BRAF (transient) % Quench RLuc ([6]; confirmation screen): 80.17%
